In patent publication US20260285850A1, “SUBSTITUTED OXAZOLIDINONES AND IMIDAZOLINONES AS HERBICIDES” (FMC CORPORATION, priority 2023, published 2026):

Legend:
Type in all cases: in vivo
corn (Zea mays) [1] = assay: Test A preemergence soil spray, visual injury rating 0-100; settings: 0 to 100 scale, 10 days
Procedure, shortened: (§1)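 Greenhouse test: loam/sand pots received a surfactant-containing formulation, as a preemergence directed soil spray or a postemergence spray on young plants. Injury was judged visually at day 10 relative to untreated controls.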

[2] = tested on: palmer (palmer amaranth, palmer pigweed, Amaranthus palmeri); assay: as above; settings: 0 to 100 scale, 10 days
Procedure, shortened: as §1

[3] = tested on: ryegrass, Italian (italian ryegrass, Lolium multiflorum); assay: as above; settings: 0 to 100 scale, 10 days
Procedure, shortened: as §1

[4] = tested on: wheat (Triticum aestivum); assay: as above; settings: 0 to 100 scale, 10 days
Procedure, shortened: as §1

[5] = tested on: barnyardgrass (Echinochloa crus-galli); assay: as above; settings: 0 to 100 scale, 10 days
Procedure, shortened: as §1

[6] = tested on: blackgrass (Alopecurus myosuroides); assay: as above; settings: 0 to 100 scale, 10 days
Procedure, shortened: as §1

[7] = tested on: oat, wild (wild oat, Avena fatua); assay: as above; settings: 0 to 100 scale, 10 days
Procedure, shortened: as §1

[8] = tested on: green foxtail (Setaria viridis); assay: as above; settings: 0 to 100 scale, 10 days
Procedure, shortened: as §1

soybean (Glycine max) [9] = assay: as above; settings: 0 to 100 scale, 10 days
Procedure, shortened: as §1

[10] = tested on: ragweed (common ragweed, Ambrosia artemisiifolia); assay: as above; settings: 0 to 100 scale, 10 days
Procedure, shortened: as §1

kochia (Bassia scoparia) [11] = assay: as above; settings: 0 to 100 scale, 10 days
Procedure, shortened: as §1

rice (Oryza sativa) = assay: Test B flooded paddy test, visual plant response rating 0-100; settings: 250 g ai/ha, Flood, applied to paddy water, evaluated after 13 days
Procedure, shortened: (§2)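 Treatment occurs at the 2-leaf stage by adding compound to floodwater standing 3 cm above the soil, a level kept for the whole test. Plants stay in the greenhouse 13 days before visual comparison with controls.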

[12] = tested on: barnyardgrass (Echinochloa crusgalli); assay: as above; settings: 250 g ai/ha, Flood, applied to paddy water, evaluated after 13 days
Procedure, shortened: as §2

[13] = tested on: ducksalad (Heteranthera limosa); assay: as above; settings: 250 g ai/ha, Flood, applied to paddy water, evaluated after 13 days
Procedure, shortened: as §2

[14] = tested on: sedge, umbrella (small-flower umbrella sedge, Cyperus difformis); assay: as above; settings: 250 g ai/ha, Flood, applied to paddy water, evaluated after 13 days
Procedure, shortened: as §2

[15] = tested on: galium (catchweed bedstraw, Galium aparine); assay: Test A postemergence application, visual injury rating 0-100; settings: Postemergence
Procedure, shortened: as §1

corn (Zea mays) [16] = assay: as above; settings: Postemergence
Procedure, shortened: as §1

[17] = tested on: palmer (palmer amaranth, palmer pigweed, Amaranthus palmeri); assay: as above; settings: Postemergence
Procedure, shortened: as §1

[18] = tested on: ryegrass, Italian (italian ryegrass, Lolium multiflorum); assay: as above; settings: Postemergence
Procedure, shortened: as §1

[19] = tested on: wheat (Triticum aestivum); assay: as above; settings: Postemergence
Procedure, shortened: as §1

[20] = tested on: barnyardgrass (Echinochloa crus-galli); assay: as above; settings: Postemergence
Procedure, shortened: as §1

[21] = tested on: blackgrass (Alopecurus myosuroides); assay: as above; settings: Postemergence
Procedure, shortened: as §1

[22] = tested on: oat, wild (wild oat, Avena fatua); assay: as above; settings: Postemergence
Procedure, shortened: as §1

[23] = tested on: green foxtail (Setaria viridis); assay: as above; settings: Postemergence
Procedure, shortened: as §1

[24] = tested on: horseweed (Erigeron canadensis); assay: as above; settings: Postemergence
Procedure, shortened: as §1

soybean (Glycine max) [25] = assay: as above; settings: Postemergence
Procedure, shortened: as §1

[26] = tested on: ragweed (common ragweed, Ambrosia artemisiifolia); assay: as above; settings: Postemergence
Procedure, shortened: as §1

kochia (Bassia scoparia) [27] = assay: as above; settings: Postemergence
Procedure, shortened: as §1

[28] = 8 g ai/ha, 10 days, 0 is no effect, 100 is complete control
[29] = 31 g ai/ha, greenhouse 10 days, 0 no effect, 100 complete control

CC1(C(=O)NC2C=CC(C(=O)NS(=O)(=O)c3ccccc3)C2)CN(c2cc(F)cc(F)c2)C(=O)O1 (stereo not shown) [Compound 88]
25: Plant response rating, Rice (0 to 100 scale, 0 is no effect and 100 is complete control) (rice (Oryza sativa))
10: Ryegrass, Italian plant response rating ([3]; 8 g ai/ha) | Wheat plant response rating ([4]; 31 g ai/ha) | Barnyardgrass plant response rating ([5]; 8 g ai/ha) | Barnyardgrass plant response rating (0 to 100 scale) [20, 28]
90: Corn plant response rating (0 to 100 scale) (corn (Zea mays) [16]; [29]) | Amaranth, Palmer / Pigweed, Palmer plant response rating (0 to 100 scale) [17, 29] | Oat, Wild plant response rating (0 to 100 scale) [22, 29]
100: Barnyardgrass plant response rating (0 to 100 scale) [20, 29]
40: Barnyardgrass plant response rating ([5]; 31 g ai/ha) | Ragweed plant response rating ([10]; 31 g ai/ha) | Corn plant response rating (0 to 100 scale) (corn (Zea mays) [16]; [28]) | Pigweed, Palmer plant response rating (0 to 100 scale) [17, 28] | Wheat plant response rating (0 to 100 scale) [19, 29]
60: Kochia plant response rating (kochia (Bassia scoparia) [11]; 31 g ai/ha) | Ragweed plant response rating (0 to 100 scale) [26, 29]
15: Plant response rating, Barnyardgrass (0 to 100 scale, 0 is no effect and 100 is complete control) [12]
20: Foxtail, Green plant response rating ([8]; 8 g ai/ha) | Wheat plant response rating (0 to 100 scale) [19, 28] | Oat, Wild plant response rating (0 to 100 scale) [22, 28]
30: Blackgrass plant response rating ([6]; 31 g ai/ha) | Foxtail, Green plant response rating ([8]; 31 g ai/ha) | Galium plant response rating (0 to 100 scale) [15, 28] | Kochia plant response rating (0 to 100 scale) (kochia (Bassia scoparia) [27]; [28])
0: Corn plant response rating (corn (Zea mays) [1]; 8 g ai/ha) | Corn plant response rating (corn (Zea mays) [1]; 31 g ai/ha) | Wheat plant response rating ([4]; 8 g ai/ha) | Blackgrass plant response rating ([6]; 8 g ai/ha) | Oat, Wild plant response rating ([7]; 8 g ai/ha) | Oat, Wild plant response rating ([7]; 31 g ai/ha) | Soybean plant response rating (soybean (Glycine max) [9]; 8 g ai/ha) | Soybean plant response rating (soybean (Glycine max) [9]; 31 g ai/ha) | Ragweed plant response rating ([10]; 8 g ai/ha) | Kochia plant response rating (kochia (Bassia scoparia) [11]; 8 g ai/ha) | Ryegrass, Italian plant response rating (0 to 100 scale) [18, 28] | Blackgrass plant response rating (0 to 100 scale) [21, 28] | Foxtail, Green plant response rating (0 to 100 scale) [23, 28] | Horseweed plant response rating (0 to 100 scale) [24, 28] | Soybean plant response rating (0 to 100 scale) (soybean (Glycine max) [25]; [28])
80: Amaranth, Palmer (Pigweed, Palmer) plant response rating ([2]; 31 g ai/ha) | Plant response rating, Sedge, Umbrella (0 to 100 scale, 0 is no effect and 100 is complete control) [14] | Kochia plant response rating (0 to 100 scale) (kochia (Bassia scoparia) [27]; [29])
50: Pigweed, Palmer plant response rating ([2]; 8 g ai/ha) | Ryegrass, Italian plant response rating ([3]; 31 g ai/ha) | Ryegrass, Italian plant response rating (0 to 100 scale) [18, 29] | Blackgrass plant response rating (0 to 100 scale) [21, 29] | Foxtail, Green plant response rating (0 to 100 scale) [23, 29] | Horseweed plant response rating (0 to 100 scale) [24, 29] | Soybean plant response rating (0 to 100 scale) (soybean (Glycine max) [25]; [29]) | Ragweed plant response rating (0 to 100 scale) [26, 28]
70: Plant response rating, Ducksalad (0 to 100 scale, 0 is no effect and 100 is complete control) [13] | Galium plant response rating (0 to 100 scale) [15, 29]
